# Measured values as given in PubChem BioAssay (NCI).
#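 Results reflect a 48-hour exposure of cells in 96-well plates to compound at five concentrations. TGI is the concentration that stops growth completely.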
# What was measured:
# Assay in all cases: NCI-60 cell line screen, 48 h
# EKVX NSCLC = system: EKVX NSCLC
# RPMI-8226 leukemia = system: RPMI-8226 leukemia
# M14 melanoma = system: M14 melanoma
# SF-268 CNS = system: SF-268 CNS
# HOP-18 NSCLC = system: HOP-18 NSCLC
# KM12 colon = system: KM12 colon
# K-562 leukemia = system: K-562 leukemia
# UACC-62 melanoma = system: UACC-62 melanoma
# U251 CNS = system: U251 CNS
# MOLT-4 leukemia = system: MOLT-4 leukemia
# LXFL 529 NSCLC = system: LXFL 529 NSCLC
# A549 NSCLC = system: A549 NSCLC
# NCI-H226 lung = system: NCI-H226 lung
# SW-620 colon = system: SW-620 colon
# UACC-257 melanoma = system: UACC-257 melanoma
# TK-10 renal = system: TK-10 renal
# NCI-H23 lung = system: NCI-H23 lung
# OVCAR-4 ovarian = system: OVCAR-4 ovarian
# SK-MEL-28 melanoma = system: SK-MEL-28 melanoma
# KM20L2 colon = system: KM20L2 colon
# HOP-62 NSCLC = system: HOP-62 NSCLC
# SN12C renal = system: SN12C renal
# HCT-15 colon = system: HCT-15 colon
# SNB-75 CNS = system: SNB-75 CNS
# MALME-3M melanoma = system: MALME-3M melanoma
# SK-OV-3 ovarian = system: SK-OV-3 ovarian
# CCRF-CEM leukemia = system: CCRF-CEM leukemia
# SK-MEL-5 melanoma = system: SK-MEL-5 melanoma
# NCI-H460 lung = system: NCI-H460 lung
# LOX IMVI melanoma = system: LOX IMVI melanoma
# M19-MEL melanoma = system: M19-MEL melanoma
# DMS 114 small cell lung = system: DMS 114 small cell lung
# UO-31 renal = system: UO-31 renal
# HT29 colon = system: HT29 colon
# RXF 393 renal = system: RXF 393 renal
# OVCAR-8 ovarian = system: OVCAR-8 ovarian
# XF 498 CNS = system: XF 498 CNS
# COLO 205 colon = system: COLO 205 colon
# HL-60(TB) leukemia = system: HL-60(TB) leukemia
# SR leukemia = system: SR leukemia
# SK-MEL-2 melanoma = system: SK-MEL-2 melanoma
# SF-295 CNS = system: SF-295 CNS
# SNB-78 CNS = system: SNB-78 CNS
# ACHN renal = system: ACHN renal
# DMS 273 small cell lung = system: DMS 273 small cell lung
# HCT-116 colon = system: HCT-116 colon
# 786-0 renal = system: 786-0 renal
# SNB-19 CNS = system: SNB-19 CNS
# PC-3 prostate = system: PC-3 prostate
# HCC-2998 colon = system: HCC-2998 colon
# NCI-H522 lung = system: NCI-H522 lung
# SF-539 CNS = system: SF-539 CNS
# HS 578T breast = system: HS 578T breast
# IGROV1 ovarian = system: IGROV1 ovarian
# MDA-MB-435 = system: MDA-MB-435
# OVCAR-3 ovarian = system: OVCAR-3 ovarian
# DLD-1 colon = system: DLD-1 colon
# DU-145 prostate = system: DU-145 prostate
# A498 renal = system: A498 renal
# HOP-92 NSCLC = system: HOP-92 NSCLC
# NCI/ADR-RES ovarian = system: NCI/ADR-RES ovarian
# MDA-MB-231 breast = system: MDA-MB-231 breast
# CAKI-1 renal = system: CAKI-1 renal
# MDA-N = system: MDA-N
# OVCAR-5 ovarian = system: OVCAR-5 ovarian
# T-47D breast = system: T-47D breast
# RXF-631 renal = system: RXF-631 renal
smiles,measurement,setting,value
O=C1CCCCC/C=C2/CC[C@H](Sc3ccccc3)[C@@H]12,TGI,EKVX NSCLC,> 100 µM
same,TGI,RPMI-8226 leukemia,> 100 µM
same,TGI,M14 melanoma,> 100 µM
same,TGI,SF-268 CNS,> 100 µM
same,TGI,HOP-18 NSCLC,> 100 µM
same,TGI,KM12 colon,> 100 µM
same,TGI,K-562 leukemia,> 100 µM
same,TGI,UACC-62 melanoma,> 100 µM
same,TGI,U251 CNS,> 100 µM
same,TGI,MOLT-4 leukemia,> 100 µM
same,TGI,LXFL 529 NSCLC,> 100 µM
same,TGI,A549 NSCLC,> 100 µM
same,TGI,NCI-H226 lung,> 100 µM
same,TGI,SW-620 colon,> 100 µM
same,TGI,UACC-257 melanoma,> 100 µM
same,TGI,TK-10 renal,> 100 µM
same,TGI,NCI-H23 lung,> 100 µM
same,TGI,OVCAR-4 ovarian,> 100 µM
same,TGI,SK-MEL-28 melanoma,> 100000 nM
same,TGI,KM20L2 colon,> 100 µM
same,TGI,HOP-62 NSCLC,> 100 µM
same,TGI,SN12C renal,> 100 µM
same,TGI,HCT-15 colon,> 100 µM
same,TGI,SNB-75 CNS,> 100000 nM
same,TGI,MALME-3M melanoma,> 100 µM
same,TGI,SK-OV-3 ovarian,> 100 µM
same,TGI,CCRF-CEM leukemia,> 100 µM
same,TGI,SK-MEL-5 melanoma,> 100 µM
same,TGI,NCI-H460 lung,> 100 µM
same,TGI,LOX IMVI melanoma,> 100 µM
same,TGI,M19-MEL melanoma,> 100 µM
same,TGI,DMS 114 small cell lung,> 100 µM
same,TGI,UO-31 renal,> 100 µM
same,TGI,HT29 colon,> 100 µM
same,TGI,RXF 393 renal,> 100000 nM
same,TGI,OVCAR-8 ovarian,> 100 µM
same,TGI,COLO 205 colon,> 100 µM
same,TGI,HL-60(TB) leukemia,> 100 µM
same,TGI,SR leukemia,> 100 µM
same,TGI,SK-MEL-2 melanoma,> 100 µM
same,TGI,SF-295 CNS,> 100 µM
same,TGI,SNB-78 CNS,> 100 µM
same,TGI,ACHN renal,> 100 µM
same,TGI,DMS 273 small cell lung,> 100 µM
same,TGI,HCT-116 colon,> 100 µM
same,TGI,786-0 renal,> 100 µM
same,TGI,SNB-19 CNS,> 100 µM
O=C1C=C2S[C@H]3C[C@]2(C=C1Br)c1c(c(O)c2c4c1=NCCC=4C=N2)N3,TGI,EKVX NSCLC,3.19 µM
same,TGI,M14 melanoma,2.01 µM
same,TGI,SF-268 CNS,2.91 µM
same,TGI,HOP-18 NSCLC,3.23 µM
same,TGI,KM12 colon,3.83 µM
same,TGI,PC-3 prostate,4.52 µM
same,TGI,UACC-62 melanoma,1.23 µM
same,TGI,U251 CNS,3.17 µM
same,TGI,HCC-2998 colon,4.98 µM
same,TGI,MOLT-4 leukemia,0.418 µM
same,TGI,NCI-H522 lung,716 nM
same,TGI,LXFL 529 NSCLC,0.395 µM
same,TGI,A549 NSCLC,6.85 µM
same,TGI,NCI-H226 lung,4.86 µM
same,TGI,SW-620 colon,0.237 µM
same,TGI,UACC-257 melanoma,0.557 µM
same,TGI,SF-539 CNS,3.03 µM
same,TGI,TK-10 renal,2.71 µM
same,TGI,NCI-H23 lung,2.57 µM
same,TGI,HS 578T breast,3.48 µM
same,TGI,IGROV1 ovarian,2920 nM
same,TGI,OVCAR-4 ovarian,0.985 µM
same,TGI,SK-MEL-28 melanoma,2760 nM
same,TGI,KM20L2 colon,1.93 µM
same,TGI,MDA-MB-435,305 nM
same,TGI,SN12C renal,2.48 µM
same,TGI,HCT-15 colon,1.99 µM
same,TGI,OVCAR-3 ovarian,1120 nM
same,TGI,DLD-1 colon,2060 nM
same,TGI,SNB-75 CNS,2920 nM
same,TGI,MALME-3M melanoma,0.261 µM
same,TGI,SK-OV-3 ovarian,17.1 µM
same,TGI,DU-145 prostate,4.09 µM
same,TGI,SK-MEL-5 melanoma,2.38 µM
same,TGI,NCI-H460 lung,11.6 µM
same,TGI,LOX IMVI melanoma,1.27 µM
same,TGI,DMS 114 small cell lung,0.404 µM
same,TGI,UO-31 renal,2.94 µM
same,TGI,HT29 colon,1.55 µM
same,TGI,RXF 393 renal,947 nM
same,TGI,OVCAR-8 ovarian,1.56 µM
same,TGI,XF 498 CNS,2780 nM
same,TGI,A498 renal,13.3 µM
same,TGI,HOP-92 NSCLC,2280 nM
same,TGI,COLO 205 colon,0.21 µM
same,TGI,NCI/ADR-RES ovarian,457 nM
same,TGI,MDA-MB-231 breast,1160 nM
same,TGI,CAKI-1 renal,3.07 µM
same,TGI,SR leukemia,> 100 µM
same,TGI,SK-MEL-2 melanoma,1.39 µM
same,TGI,SF-295 CNS,2.83 µM
same,TGI,MDA-N,314 nM
same,TGI,SNB-78 CNS,3.79 µM
same,TGI,ACHN renal,1.76 µM
same,TGI,DMS 273 small cell lung,2.39 µM
same,TGI,HCT-116 colon,0.342 µM
same,TGI,OVCAR-5 ovarian,3.25 µM
same,TGI,786-0 renal,2.14 µM
same,TGI,T-47D breast,890 nM
same,TGI,SNB-19 CNS,25.7 µM
CC(=O)CC(=O)CCCC(=O)Nc1ccc(Cl)cc1C,TGI,EKVX NSCLC,> 100 µM
same,TGI,RPMI-8226 leukemia,> 100 µM
same,TGI,M14 melanoma,> 100 µM
same,TGI,SF-268 CNS,> 100 µM
same,TGI,HOP-18 NSCLC,> 100 µM
same,TGI,KM12 colon,> 100 µM
same,TGI,K-562 leukemia,> 100 µM
same,TGI,UACC-62 melanoma,> 100 µM
same,TGI,U251 CNS,> 100 µM
same,TGI,HCC-2998 colon,> 100 µM
same,TGI,MOLT-4 leukemia,> 100 µM
same,TGI,NCI-H522 lung,> 100000 nM
same,TGI,LXFL 529 NSCLC,> 100 µM
same,TGI,A549 NSCLC,> 100 µM
same,TGI,NCI-H226 lung,> 100 µM
same,TGI,SW-620 colon,> 100 µM
same,TGI,UACC-257 melanoma,> 100 µM
same,TGI,SF-539 CNS,> 100 µM
same,TGI,TK-10 renal,> 100 µM
same,TGI,NCI-H23 lung,> 100 µM
same,TGI,IGROV1 ovarian,> 100000 nM
same,TGI,OVCAR-4 ovarian,> 100 µM
same,TGI,KM20L2 colon,> 100 µM
same,TGI,SN12C renal,> 100 µM
same,TGI,HCT-15 colon,> 100 µM
same,TGI,OVCAR-3 ovarian,> 100000 nM
same,TGI,DLD-1 colon,> 100000 nM
same,TGI,MALME-3M melanoma,> 100 µM
same,TGI,SK-OV-3 ovarian,> 100 µM
same,TGI,CCRF-CEM leukemia,> 100 µM
same,TGI,SK-MEL-5 melanoma,> 100 µM
same,TGI,NCI-H460 lung,> 100 µM
same,TGI,LOX IMVI melanoma,> 100 µM
same,TGI,M19-MEL melanoma,> 100 µM
same,TGI,DMS 114 small cell lung,> 100 µM
same,TGI,UO-31 renal,> 100 µM
same,TGI,HT29 colon,> 100 µM
same,TGI,OVCAR-8 ovarian,> 100 µM
same,TGI,A498 renal,> 100 µM
same,TGI,HOP-92 NSCLC,> 100000 nM
same,TGI,COLO 205 colon,> 100 µM
same,TGI,CAKI-1 renal,> 100 µM
same,TGI,HL-60(TB) leukemia,> 100 µM
same,TGI,SK-MEL-2 melanoma,> 100 µM
same,TGI,RXF-631 renal,> 100 µM
same,TGI,SF-295 CNS,> 100 µM
same,TGI,SNB-78 CNS,> 100 µM
same,TGI,ACHN renal,> 100 µM
same,TGI,DMS 273 small cell lung,> 100 µM
same,TGI,HCT-116 colon,> 100 µM
same,TGI,OVCAR-5 ovarian,> 100 µM
same,TGI,786-0 renal,> 100 µM
same,TGI,SNB-19 CNS,> 100 µM
